Assay results reported in ChEMBL document CHEMBL1201862, “PubChem BioAssay data set” (2004).
Active and inactive are the calls of the source.

What was measured:
[1] = target: FAD-linked sulfhydryl oxidase ALR (Homo sapiens, UniProt P55789); assay: ALR-catalysed DTT oxidation blockers – biochemical, H2O2 detection, luminescence, cherry-pick, dose response (AID 493248)
[2] = target: T1, Microphthalmia-associated transcription factor (Homo sapiens, UniProt O75030); assay: reducers of TRPM1 reporter luminescence, concentration series – cell-based, SK-MEL-5, cherry-picked, set 3, MITF inhibitor project, dose response (AID 493073); type: functional;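 note: SK-MEL-5 melanoma cells with luciferase driven by the MITF target TRPM1 promoter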
T1 sequence (O75030 whole entry): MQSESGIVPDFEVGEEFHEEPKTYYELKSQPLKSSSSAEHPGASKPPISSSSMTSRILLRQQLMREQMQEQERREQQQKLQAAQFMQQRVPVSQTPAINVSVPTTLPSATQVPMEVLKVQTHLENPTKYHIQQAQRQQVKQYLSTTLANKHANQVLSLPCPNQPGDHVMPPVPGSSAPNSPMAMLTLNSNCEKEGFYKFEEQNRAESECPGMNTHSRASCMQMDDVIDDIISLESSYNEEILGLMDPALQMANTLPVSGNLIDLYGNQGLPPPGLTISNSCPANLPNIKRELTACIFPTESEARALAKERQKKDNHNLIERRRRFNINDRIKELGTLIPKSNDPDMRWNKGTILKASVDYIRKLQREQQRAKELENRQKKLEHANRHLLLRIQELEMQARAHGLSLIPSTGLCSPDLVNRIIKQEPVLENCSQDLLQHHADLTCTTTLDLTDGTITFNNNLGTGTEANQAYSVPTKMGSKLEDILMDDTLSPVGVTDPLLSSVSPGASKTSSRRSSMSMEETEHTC

A-375 = assay: proliferation inhibition in MITF-low A375 cells – cell-based, cherry-pick samples, set 2, counter-screen for MITF modulator project, dose response (AID 540335); type: functional; settings: Homo sapiens
[3] = target: T2, Histone-lysine N-methyltransferase NSD2 (Homo sapiens, UniProt O96028); type: biochemical
T2 sequence (O96028 whole entry): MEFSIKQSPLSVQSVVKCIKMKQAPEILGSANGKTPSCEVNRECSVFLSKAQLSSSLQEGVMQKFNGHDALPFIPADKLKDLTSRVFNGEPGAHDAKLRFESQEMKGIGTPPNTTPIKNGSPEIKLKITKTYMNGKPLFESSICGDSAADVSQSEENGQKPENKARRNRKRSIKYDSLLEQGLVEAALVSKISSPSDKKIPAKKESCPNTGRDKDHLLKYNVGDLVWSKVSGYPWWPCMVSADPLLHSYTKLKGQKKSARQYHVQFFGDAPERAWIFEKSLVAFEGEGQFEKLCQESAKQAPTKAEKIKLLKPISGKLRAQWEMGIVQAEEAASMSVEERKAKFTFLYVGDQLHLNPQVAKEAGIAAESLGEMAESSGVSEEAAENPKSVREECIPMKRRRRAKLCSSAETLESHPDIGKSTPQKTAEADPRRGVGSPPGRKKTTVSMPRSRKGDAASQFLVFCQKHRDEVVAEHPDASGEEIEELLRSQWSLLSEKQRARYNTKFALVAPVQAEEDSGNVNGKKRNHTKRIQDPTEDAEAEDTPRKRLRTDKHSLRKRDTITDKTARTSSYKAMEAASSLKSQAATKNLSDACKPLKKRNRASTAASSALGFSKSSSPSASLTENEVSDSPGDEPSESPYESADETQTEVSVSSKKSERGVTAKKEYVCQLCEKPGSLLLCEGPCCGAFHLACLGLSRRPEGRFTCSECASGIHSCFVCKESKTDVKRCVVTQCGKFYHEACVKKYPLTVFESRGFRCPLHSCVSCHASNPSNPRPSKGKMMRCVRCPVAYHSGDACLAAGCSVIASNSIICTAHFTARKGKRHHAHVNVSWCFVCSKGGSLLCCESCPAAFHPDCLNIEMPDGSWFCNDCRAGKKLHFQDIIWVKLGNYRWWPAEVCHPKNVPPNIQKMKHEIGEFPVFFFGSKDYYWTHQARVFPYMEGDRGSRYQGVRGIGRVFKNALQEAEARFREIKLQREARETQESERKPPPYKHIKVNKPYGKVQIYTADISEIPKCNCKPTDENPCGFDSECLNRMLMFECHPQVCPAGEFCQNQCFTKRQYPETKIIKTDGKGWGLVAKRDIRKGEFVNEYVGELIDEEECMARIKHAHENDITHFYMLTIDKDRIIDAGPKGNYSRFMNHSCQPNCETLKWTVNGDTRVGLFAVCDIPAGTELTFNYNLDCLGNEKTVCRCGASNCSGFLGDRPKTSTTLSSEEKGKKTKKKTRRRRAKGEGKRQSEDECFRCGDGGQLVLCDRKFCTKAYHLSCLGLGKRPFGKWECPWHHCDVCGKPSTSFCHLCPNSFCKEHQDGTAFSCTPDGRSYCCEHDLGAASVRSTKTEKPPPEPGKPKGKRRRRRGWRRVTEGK

[4] = target: T3, Heat shock factor protein 1 (Mus musculus, UniProt P38532); assay: decrease of HSF1-responsive luciferase luminescence – cell-based, NIH3T3, dose retest, confirmation (AID 2382); type: functional;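 note: NIH3T3 fibroblasts with HSF1-driven luciferase reporter stressed by proteasome inhibitor MG132; luminescence from HSF1-driven luciferase expression after 8 hours of MG132 stress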
T3 sequence (P38532 whole entry): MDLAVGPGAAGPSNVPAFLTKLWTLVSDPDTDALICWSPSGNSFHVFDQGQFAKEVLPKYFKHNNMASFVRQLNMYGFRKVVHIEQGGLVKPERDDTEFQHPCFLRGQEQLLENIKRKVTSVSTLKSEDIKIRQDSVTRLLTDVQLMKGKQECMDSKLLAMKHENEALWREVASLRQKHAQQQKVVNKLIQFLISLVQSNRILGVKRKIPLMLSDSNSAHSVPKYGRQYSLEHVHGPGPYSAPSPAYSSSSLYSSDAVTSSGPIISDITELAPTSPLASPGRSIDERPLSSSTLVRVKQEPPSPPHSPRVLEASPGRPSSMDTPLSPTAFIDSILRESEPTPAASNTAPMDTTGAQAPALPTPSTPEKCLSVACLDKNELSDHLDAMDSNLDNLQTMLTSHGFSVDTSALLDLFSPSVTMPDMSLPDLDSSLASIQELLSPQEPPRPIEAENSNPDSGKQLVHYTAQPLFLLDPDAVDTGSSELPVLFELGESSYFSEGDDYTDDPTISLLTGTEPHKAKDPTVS

CHO = CHO cell viability loss, potency – luminescence, cytotoxicity control for TLR9-MyD88 binding inhibitor project, dose response (AID 588339); type: functional, cell-based, hamster; settings: Cricetulus griseus;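 note: CHO cells stably coexpressing TLR9 and MyD88 fusions from primary screen; compound exposure lasted 48 hours before viability readout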
Caspase-3 = target: T4, Caspase-3 (Homo sapiens, UniProt P42574); type: functional;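 note: Dose-response selectivity test against caspase-3 for candidate inhibitors of sentrin-specific proteases (SENPs)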
T4 sequence (P42574 whole entry): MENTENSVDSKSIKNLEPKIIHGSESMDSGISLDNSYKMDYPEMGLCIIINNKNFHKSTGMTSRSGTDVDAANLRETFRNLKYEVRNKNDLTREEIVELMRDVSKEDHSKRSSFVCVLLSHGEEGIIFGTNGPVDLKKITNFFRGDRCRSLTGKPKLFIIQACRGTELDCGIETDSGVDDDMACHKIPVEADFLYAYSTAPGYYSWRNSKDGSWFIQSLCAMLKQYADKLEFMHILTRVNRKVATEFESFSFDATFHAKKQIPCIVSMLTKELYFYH

[5] = target: T5, Sentrin-specific protease 7 (Homo sapiens, UniProt Q9BQF6); type: functional;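 note: Luminescence-based dose-response confirmation of ultra-high-throughput screening hits, measuring inhibition of SENP7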
T5 sequence (Q9BQF6 whole entry): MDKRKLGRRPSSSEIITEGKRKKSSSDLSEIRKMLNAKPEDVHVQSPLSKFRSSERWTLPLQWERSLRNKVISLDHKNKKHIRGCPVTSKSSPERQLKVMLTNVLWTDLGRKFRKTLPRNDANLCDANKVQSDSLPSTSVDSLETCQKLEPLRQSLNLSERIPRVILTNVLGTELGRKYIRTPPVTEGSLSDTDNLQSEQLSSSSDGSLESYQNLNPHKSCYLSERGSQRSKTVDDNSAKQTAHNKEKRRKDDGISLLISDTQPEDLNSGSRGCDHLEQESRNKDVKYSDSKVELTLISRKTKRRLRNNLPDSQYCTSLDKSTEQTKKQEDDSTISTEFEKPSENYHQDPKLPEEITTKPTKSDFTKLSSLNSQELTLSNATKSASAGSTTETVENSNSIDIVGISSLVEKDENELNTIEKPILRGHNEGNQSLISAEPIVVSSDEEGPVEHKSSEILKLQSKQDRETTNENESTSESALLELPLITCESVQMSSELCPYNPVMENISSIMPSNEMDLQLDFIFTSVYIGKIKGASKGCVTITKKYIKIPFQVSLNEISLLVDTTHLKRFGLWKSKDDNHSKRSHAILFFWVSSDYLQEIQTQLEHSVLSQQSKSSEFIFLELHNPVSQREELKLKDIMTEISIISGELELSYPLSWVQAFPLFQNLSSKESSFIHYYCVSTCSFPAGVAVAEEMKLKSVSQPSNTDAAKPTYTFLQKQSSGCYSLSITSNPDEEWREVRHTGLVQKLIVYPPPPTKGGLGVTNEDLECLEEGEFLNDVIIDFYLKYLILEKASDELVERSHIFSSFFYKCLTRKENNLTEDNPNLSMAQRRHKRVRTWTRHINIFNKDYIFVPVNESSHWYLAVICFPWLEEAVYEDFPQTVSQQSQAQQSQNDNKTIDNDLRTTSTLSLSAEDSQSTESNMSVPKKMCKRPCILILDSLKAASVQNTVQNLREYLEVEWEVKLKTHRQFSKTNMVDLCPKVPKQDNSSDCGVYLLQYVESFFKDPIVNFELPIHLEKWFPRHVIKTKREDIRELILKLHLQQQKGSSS

[6] = target: T6, Sentrin-specific protease 6 (Homo sapiens, UniProt Q9GZR1); type: functional;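 note: Luminescence-based dose-response confirmatory assay of SENP6 inhibition, following up an ultra-high-throughput screen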
T6 sequence (Q9GZR1 whole entry): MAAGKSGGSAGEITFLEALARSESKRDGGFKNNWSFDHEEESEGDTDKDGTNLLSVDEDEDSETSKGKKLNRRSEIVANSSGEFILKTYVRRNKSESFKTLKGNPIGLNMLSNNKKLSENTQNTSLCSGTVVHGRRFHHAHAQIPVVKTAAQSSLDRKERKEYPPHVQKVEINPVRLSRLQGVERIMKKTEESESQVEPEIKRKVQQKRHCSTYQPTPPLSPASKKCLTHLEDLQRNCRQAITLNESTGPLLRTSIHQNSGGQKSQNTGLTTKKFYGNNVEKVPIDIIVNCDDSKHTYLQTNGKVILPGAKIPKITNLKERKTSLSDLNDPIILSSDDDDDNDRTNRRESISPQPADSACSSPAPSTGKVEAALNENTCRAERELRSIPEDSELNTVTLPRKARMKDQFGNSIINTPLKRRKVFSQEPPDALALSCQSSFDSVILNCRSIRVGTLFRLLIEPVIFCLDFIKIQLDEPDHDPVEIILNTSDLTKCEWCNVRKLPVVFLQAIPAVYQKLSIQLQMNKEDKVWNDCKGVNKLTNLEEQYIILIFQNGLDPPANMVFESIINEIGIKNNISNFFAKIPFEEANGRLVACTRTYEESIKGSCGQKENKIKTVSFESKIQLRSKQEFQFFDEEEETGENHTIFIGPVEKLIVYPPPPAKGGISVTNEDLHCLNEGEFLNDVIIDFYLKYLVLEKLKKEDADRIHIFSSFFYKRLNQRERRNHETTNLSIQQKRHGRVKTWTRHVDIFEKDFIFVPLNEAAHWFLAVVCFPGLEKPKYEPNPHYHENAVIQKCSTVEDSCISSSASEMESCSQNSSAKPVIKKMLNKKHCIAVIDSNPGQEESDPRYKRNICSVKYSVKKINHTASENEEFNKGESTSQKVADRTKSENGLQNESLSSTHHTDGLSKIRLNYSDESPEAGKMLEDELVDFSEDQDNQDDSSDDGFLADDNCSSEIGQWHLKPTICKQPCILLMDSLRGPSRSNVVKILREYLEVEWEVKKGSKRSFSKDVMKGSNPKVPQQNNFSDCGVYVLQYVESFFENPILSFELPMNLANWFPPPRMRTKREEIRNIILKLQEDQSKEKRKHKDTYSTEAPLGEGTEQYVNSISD

[7] = target: T7, Sentrin-specific protease 8 (Homo sapiens, UniProt Q96LD8); type: functional;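 note: luminescence read-out of SENP8 inhibition, dose-response confirmation following an ultra-high-throughput screen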
T7 sequence (Q96LD8 whole entry): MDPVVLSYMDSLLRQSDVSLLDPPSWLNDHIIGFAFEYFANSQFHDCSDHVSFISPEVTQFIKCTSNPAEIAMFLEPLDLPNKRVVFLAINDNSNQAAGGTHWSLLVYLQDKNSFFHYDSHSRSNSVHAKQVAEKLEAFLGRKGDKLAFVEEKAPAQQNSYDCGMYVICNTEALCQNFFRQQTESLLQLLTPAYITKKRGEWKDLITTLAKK

Beta-galactosidase = Beta-galactosidase (Escherichia coli, UniProt Q8VNN2); assay: PubChem AID 485352; type: functional
Chain of Beta-galactosidase (Q8VNN2 whole entry): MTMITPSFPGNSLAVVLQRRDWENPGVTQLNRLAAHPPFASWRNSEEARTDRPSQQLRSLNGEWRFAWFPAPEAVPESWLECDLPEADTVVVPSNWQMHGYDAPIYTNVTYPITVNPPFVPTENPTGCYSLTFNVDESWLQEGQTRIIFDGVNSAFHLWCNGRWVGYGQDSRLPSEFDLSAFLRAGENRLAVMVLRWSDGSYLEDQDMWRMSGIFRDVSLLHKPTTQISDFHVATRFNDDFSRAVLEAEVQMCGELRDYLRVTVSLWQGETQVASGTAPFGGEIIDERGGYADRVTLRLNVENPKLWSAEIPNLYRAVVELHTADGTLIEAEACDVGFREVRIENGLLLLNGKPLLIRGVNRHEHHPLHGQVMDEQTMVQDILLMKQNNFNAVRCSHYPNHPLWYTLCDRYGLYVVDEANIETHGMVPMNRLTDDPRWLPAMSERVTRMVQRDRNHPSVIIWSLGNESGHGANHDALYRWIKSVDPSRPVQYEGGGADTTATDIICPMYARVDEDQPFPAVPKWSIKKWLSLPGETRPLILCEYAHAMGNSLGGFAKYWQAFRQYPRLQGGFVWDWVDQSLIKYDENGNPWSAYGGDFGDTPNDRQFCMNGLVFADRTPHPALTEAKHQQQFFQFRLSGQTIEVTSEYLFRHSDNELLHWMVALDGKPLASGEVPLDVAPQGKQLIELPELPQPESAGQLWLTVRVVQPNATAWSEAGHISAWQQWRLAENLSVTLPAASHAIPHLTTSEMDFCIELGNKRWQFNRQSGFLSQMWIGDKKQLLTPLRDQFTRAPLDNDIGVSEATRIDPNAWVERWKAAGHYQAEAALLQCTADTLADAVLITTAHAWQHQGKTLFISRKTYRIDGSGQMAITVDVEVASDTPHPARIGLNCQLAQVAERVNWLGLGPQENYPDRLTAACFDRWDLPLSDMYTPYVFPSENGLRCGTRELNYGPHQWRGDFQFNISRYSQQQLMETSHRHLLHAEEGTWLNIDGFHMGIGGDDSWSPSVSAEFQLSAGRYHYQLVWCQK

[8] = target: Type-1 angiotensin II receptor (Homo sapiens, UniProt P30556); assay: antagonism of angiotensin II type 1 receptor – cell-based, uHTS hits, selectivity assay for APJ receptor antagonist project, dose response (AID 463214); type: functional;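 note: antagonist potency against angiotensin II stimulated AT1 response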
Chain of Type-1 angiotensin II receptor (P30556 whole entry): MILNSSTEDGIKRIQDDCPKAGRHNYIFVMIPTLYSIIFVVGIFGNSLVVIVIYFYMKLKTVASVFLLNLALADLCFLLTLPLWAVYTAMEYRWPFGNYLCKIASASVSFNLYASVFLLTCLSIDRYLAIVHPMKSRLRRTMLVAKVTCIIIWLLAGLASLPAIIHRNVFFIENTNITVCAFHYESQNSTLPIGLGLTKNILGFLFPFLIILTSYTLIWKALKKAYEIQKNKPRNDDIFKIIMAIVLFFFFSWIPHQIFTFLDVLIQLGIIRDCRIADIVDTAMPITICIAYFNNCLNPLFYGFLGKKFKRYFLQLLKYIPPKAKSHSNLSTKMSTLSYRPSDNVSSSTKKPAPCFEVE

INS1 = assay: INS-1E mitochondrial potential rescue under cytokines – cell-based, JC-1 fluorescence ratio, dry powder, dose response (AID 488931); type: functional; settings: Rattus norvegicus

Chain of FAD-linked sulfhydryl oxidase ALR (P55789 whole entry): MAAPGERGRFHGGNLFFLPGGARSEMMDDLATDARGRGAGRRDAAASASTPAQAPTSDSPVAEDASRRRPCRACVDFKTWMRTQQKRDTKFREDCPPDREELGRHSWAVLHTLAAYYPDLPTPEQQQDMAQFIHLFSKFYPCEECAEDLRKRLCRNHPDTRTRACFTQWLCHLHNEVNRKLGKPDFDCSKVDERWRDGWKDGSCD

With `Cc1cc(C)cc(N2C(=O)NC(=O)/C(=C\C=C\c3ccco3)C2=O)c1` the AC50 [1] was 0.501 µM (active), the AC50 [2] was 4.88 µM (active) and the AC50 (A-375) was 26.7 µM (active). The AC50 [3] was 18.1 µM (active).

For `CC(C)OC(=O)c1sc2nc(-c3ccccc3)ccc2c1N`, the EC50 [4] was < 0.16 µM (active) and the IC50 (CHO) was > 49.8 µM (inactive).

For `Cc1nn2cc(-c3ncc(C(F)(F)F)cc3Cl)cnc2c1Br`, the IC50 (Caspase-3) was 21.5 µM (active), the IC50 [5] was 19.4 µM (active) and the IC50 [6] was 44.8 µM (active). For the same compound, the IC50 [7] was 36.9 µM (active).

`Cc1nnsc1C(=O)NNc1ccc(C(C)(C)C)cc1` was tested, and the EC50 (Beta-galactosidase) was > 40 µM (inactive) and the IC50 [8] was 2.56 µM (active).

With `COc1ccc(S(=O)(=O)N(C)C[C@@H]2Oc3c(NC(=O)C4CCCCC4)cccc3C(=O)N([C@@H](C)CO)C[C@H]2C)cc1` the AC50 (INS1) was 137 µM (active).

For `O=S(=O)(N/N=C\c1ccc(-c2ccccc2Cl)o1)c1ccccc1`, the EC50 (Beta-galactosidase) was > 40 µM (inactive) and the IC50 [8] was > 40 µM (not active).
